Patent US5171741A, “Bacteriochlorophyll-a derivatives useful in photodynamic therapy” (Health Research, Inc., priority 1989, dated 1992)
Like-named read-outs stand apart in the source and are kept apart here.

Key:
[1] = as compared to bacteriochlorophyll-a; Beems et al.; cited from earlier work
skin of the foot = experiment: Cutaneous photosensitivity of the foot of treated mice versus tumor response (therapeutic ratio); assay type: in vivo
Procedure: One of the undesirable side effects of photodynamic therapy using certain compounds is cutaneous photosensitivity unrelated to the target biological substrate. Accordingly, the effect of the treatment on the photosensitivity of the foot of the treated mice was measured. The response of the foot was measured as erythema and/or edema (or loss of skin or further damage).

[2] = Uptake, clearance and metabolism of bchla in tumor and liver (extraction, HPLC); assay type: in vivo, DBA/2 Ha mice; details: for concentration at 2 h: 2 h after injection; for concentration at 24 h: 24 h after injection
Procedure: Uptake and clearance of bchla in tumor and liver were measured by extraction of the tumor or liver tissue with 1:1MeOH:CH2 Cl2, followed by HPLC analysis.
bchla Uptake in DBA/2 Ha Mice in SMT-F Tumor

SMT-F tumors = experiment: Photodynamic treatment of SMT-F tumors in mice with bchla, tumor response; assay type: in vivo, DBA2/HaD mice
Procedure: DBA2/HaD mice were transplanted with SMT-F tumors. When the subcutaneous tumors reached 4.5-5.5 mm in diameter, the mice, in groups of five, were injected intravenously with the bchla solution of Example 1 in doses of 5-30 mg/kg. At a time 1 hour-5 days later, the tumor, previously shaved and depiliated, plus a margin of 2-3 mm was exposed to radiation of a wavelength in the range 630-800 nm using a Spectraphysics argon dye laser with Exciton LDS751 dye, tunable over the 700-800 nm range or a diode laser--e. g., Spectra Diode emitting in the 750-850 nm range or a Xenon arc lamp filtered with an interference filter to pass 90% of the 700 nm light ±60 nm at dose rates of 75-150 mW/cm^2. When the Xenon system was used, mild hyperthermia resulted (42° C. at 160 mW/cm^2). It is not known whether this temperature rise acts synergistically with bchla as has been shown with HpD and its active fraction.
Tumor response is shown in the table of FIG. 1 for the seventh day after light treatment which indicates regression, and at a time point at least 30 days after light treatment, which would indicate cure, if there had been no regrowth.
As shown in FIG. 1 good response to bchla was obtained, for example, after 2 hours at 5 mg/kg in the 670-790 nm range and after 24 hours after injection with 10 mg/kg and irradiated at 680-780 nm. […]

[3] = Chemical and in vivo stability of bchla
[4] = cited from earlier work

## CCC1c2cc3[nH]c(c(CC(=O)O)c4nc(cc5[nH]c(cc(n2)C1C)c(C(C)=O)c5C)C(C)C4CCC(=O)O)c(C(=O)O)c3C (stereo not shown) [bacteriochlorin-a]
[1]
  Water solubility: enhanced water solubility

## CCC1C2=NC(=Cc3c(C(C)=O)c(C)c4[n]3[Mg][n]3c(c(C)c(C(=O)O)c3=C(CC(=O)O)C3=NC(=C4)C(C)C3CCC(=O)O)=C2)C1C (stereo not shown) [bacteriochloro-phyllin-a]
[1]
  Water solubility: enhanced water solubility

## CCC1C2=NC(=Cc3c(C(C)=O)c(C)c4[n]3[Mg][n]3c(c(C)c5c3=C(C3=NC(=C4)C(C)C3CCC(=O)OCC=C(C)CCCC(C)CCCC(C)CCCC(C)C)C(C(=O)OC)C5=O)=C2)C1C (stereo not shown) [bchla, Bacteriochlorophyll-a]
Skin of the foot; expected from the mouse foot response
  Expected persistence of sensitivity to light: only a few days
Skin of the foot; mice, FIG. 3
  Sensitivity of the tumor and the skin of the foot as a function of time: declined concomitantly
[2]; 24 or 48 hours
  Levels in tumor and liver maintained: maintained for as long as 24 or 48 hours
[2]; after 2 hours
  Levels in tumor and liver: high levels
[2]; at 24 hours
  Composition of material in tumor: demetallized but still contains phytyl
[2]; at 48 hours
  Composition of material in tumor: mainly material without phytyl and without Mg
[2]; liver
  Time of partial conversion to bacteriopheophytin: 2 h
[2]; mouse, liver, 10 mg/kg, read-out: Tissue Level, Liver
  concentration at 2 h: 44000 ng/g
[2]; mouse, liver, 10 mg/kg, uncertain (*), conversion to other components, read-out: Tissue Level, Liver
  concentration at 24 h: 49400 ng/g
[2]; mouse, tumor, 10 mg/kg, read-out: Tissue Level, Tumor
  concentration at 2 h: 6140 ng/g
[2]; mouse, tumor, 10 mg/kg, 48 h after injection, uncertain (*), conversion to other components, read-out: Tissue Level, Tumor
  concentration at 48 h: 10700 ng/g
[2]; mouse, tumor, 20 mg/kg, read-out: Tissue Level, Tumor
  concentration at 2 h: 16000 ng/g
[2]; mouse, tumor, 20 mg/kg, uncertain (*), conversion to other components, read-out: Tissue Level, Tumor
  concentration at 24 h: 10000 to 19700 ng/g
[2]; tumor
  Time of partial conversion to bacteriopheophytin: ≥ 24 h
[2]; two hours after injection
  Composition of material in tumor: essentially only bchla with a small amount of material wherein the phytyl group has hydrolyzed
SMT-F tumors; 5 mg/kg i.v., 2 hours after injection, 670-790 nm range
  Tumor response: good response
SMT-F tumors; 10 mg/kg i.v., 24 hours after injection, irradiated at 680-780 nm
  Tumor response: good response
[3]
  Stability in vivo: sufficiently stable in vivo
[4]; dilute acid
  Stability towards loss of magnesium ion: readily removed
[4]; especially in the presence of light
  Stability towards oxidation: readily oxidized
